Source: patent EP2379549B1, “7-AZAINDIRUBINS, 7'-AZAINDIRUBINS, 7-7'-DIAZAINDIRUBIN AND THE CORRESPONDING 3'-OXIME ETHER DERIVATES: PRODUCTION THEREOF, THEIR PRODUCTION AND USE AS A MEDICAMENT” (Eisenbrand, Gerhard, priority 2008, dated 2010)

Columns and labels:
C6 glioblastoma cells = conditions: murine C6 glioblastoma cells; parent 5-methylindirubin; cited from earlier work
human cancer cell lines = test: Antiproliferative activity against human cancer cell lines; assay type: cell-based

Cc1cc2c(cc1O)NC(=O)C2=C1Nc2ccccc2C1=O
effectiveness for inhibition of cells versus parent compound (C6 glioblastoma cells): as effective as the parent compound

O=C1Nc2ccccc2C1=C1Nc2ncccc2C1=O [E843, 7'-Azaindirubin]
antiproliferative activity as compared to the parent molecule, indirubin (human cancer cell lines): markedly augmented
